Measured values as given in the NIST ThermoML archive (doi:10.1021/je049776w).

Assay: xn = mol fraction of the nth substance listed
Conditions: 101.3 kPa, Liquid

Cc1ccc(C)cc1 [1,4-dimethylbenzene] + CCCCCCC
Conditions | mass density, 298.15 K [kg/m3] | mass density, 303.15 K [kg/m3] | mass density, 313.15 K [kg/m3] | viscosity, 298.15 K [mPa·s] | viscosity, 303.15 K [mPa·s] | viscosity, 313.15 K [mPa·s]
x1 = 0.0948 | 694.32 | 690.05 | 681.45 | 0.4074 | 0.382 | 0.344
x1 = 0.1911 | 709.39 | 705.12 | 696.52 | 0.4176 | 0.3912 | 0.3523
x1 = 0.288 | 725.04 | 720.75 | 712.12 | 0.4295 | 0.4019 | 0.3623
x1 = 0.3865 | 741.5 | 737.2 | 728.57 | 0.4436 | 0.4154 | 0.374
x1 = 0.4856 | 758.54 | 754.24 | 745.57 | 0.4598 | 0.4304 | 0.3865
x1 = 0.5861 | 776.51 | 772.19 | 763.52 | 0.4807 | 0.4496 | 0.4034
x1 = 0.6877 | 795.16 | 790.83 | 782.15 | 0.5047 | 0.4716 | 0.4234
x1 = 0.7906 | 814.74 | 810.42 | 801.71 | 0.5331 | 0.4979 | 0.444
x1 = 0.8949 | 835.24 | 830.91 | 822.21 | 0.5714 | 0.5308 | 0.4729
x1 = 1 | 856.7 | 852.35 | 843.64 | 0.6162 | 0.5715 | 0.508
